The values that follow come from ChEMBL document CHEMBL5046289, “Targeting the S2 Subsite Enables the Structure-Based Discovery of Novel Highly Selective Factor XIa Inhibitors” (J Med Chem, 2022).

The source made the active and inactive calls.

Data set [1] has as its target Coagulation factor IX (Homo sapiens) (UniProt P00740). The data set can be described thus: Inhibition of coagulation factor IXa (unknown origin) assessed as chromogenic substrate using ADG299 as substrate at 1 mM incubated for 1 hr by spectrophotometer based microplate reader method.
The nature of data set [2]: Toxicity in C57BL/6J mouse assessed as bleeding risk at 20 mg/kg, iv measured after 15 mins by tail transection assay. The note with it: in vivo, 0.25 h. The format is organism-based.
Data set [3] is described as follows: Half life in Sprague-Dawley rat at 10 mg/kg, iv after 0.083 to 24 hrs by LC-MS/MS analysis. The data set is classed as ADME, organism-based. The following applies: in vivo, time 0.083-24 hrs.
The nature of data set [4]: Toxicity in C57BL/6J mouse assessed as bleeding risk at 19.5 to 39 mg/kg, iv measured after 15 mins by tail transection assay. The data set is classed as organism-based. The following applies: in vivo, 0.25 h, dose 19.5-39 mg/kg.
For the next data set, the species on record is Homo sapiens. The experiment in a line: Selectivity index, ratio of IC50 for coagulation factor IXa (unknown origin) to IC50 for coagulation factor XIa (unknown origin).
Data set [5] in a line: Apparent volume of distribution in Sprague-Dawley rat at 10 mg/kg, iv after 0.083 to 24 hrs by LC-MS/MS analysis. The note with it: in vivo, time 0.083-24 hrs, read-out: Vz. The data set is classed as ADME, organism-based.
The nature of data set [6]: MRT(0 to t) in Sprague-Dawley rat at 10 mg/kg, iv after 0.083 to 24 hrs by LC-MS/MS analysis. The format is ADME, organism-based. The note with it: in vivo, time 0.083-24 hrs.
Data set [7] can be described thus: Acute toxicity in ICR mouse assessed as histological change in liver at 50 to 100 mg/kg, iv as single dose for 14 days by H and E staining method. The format is organism-based. The note with it: in vivo, 336 h, dose 50-100 mg/kg, time 14 day.
The target of data set [8] is T1, Coagulation factor VII (Homo sapiens) (UniProt P08709).
T1 sequence (whole entry): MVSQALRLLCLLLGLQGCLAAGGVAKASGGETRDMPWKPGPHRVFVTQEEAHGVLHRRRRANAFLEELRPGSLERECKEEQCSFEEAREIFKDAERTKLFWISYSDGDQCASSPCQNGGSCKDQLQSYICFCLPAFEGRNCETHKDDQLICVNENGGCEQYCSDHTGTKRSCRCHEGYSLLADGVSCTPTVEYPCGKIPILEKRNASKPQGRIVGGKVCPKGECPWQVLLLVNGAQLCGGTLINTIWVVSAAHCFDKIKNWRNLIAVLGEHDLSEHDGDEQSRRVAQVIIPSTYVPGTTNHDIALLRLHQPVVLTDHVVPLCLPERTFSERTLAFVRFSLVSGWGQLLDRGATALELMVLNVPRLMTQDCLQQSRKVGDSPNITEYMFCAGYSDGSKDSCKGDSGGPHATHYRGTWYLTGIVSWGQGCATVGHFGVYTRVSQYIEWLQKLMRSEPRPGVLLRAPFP
The experiment in a line: Inhibition of coagulation factor VIIa (unknown origin) assessed as chromogenic substrate using chromozyme t-PA as substrate at 1 mM incubated for 1 hr by spectrophotometer based microplate reader method.

Coagulation factor IX (Homo sapiens), sequence (P00740 47-191 limits assumed): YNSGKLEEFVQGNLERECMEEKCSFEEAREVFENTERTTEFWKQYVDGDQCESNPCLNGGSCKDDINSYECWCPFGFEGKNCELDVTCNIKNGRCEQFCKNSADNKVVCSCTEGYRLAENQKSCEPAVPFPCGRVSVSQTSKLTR
Coagulation factor IX (Homo sapiens), sequence (P00740 227-461 limits assumed): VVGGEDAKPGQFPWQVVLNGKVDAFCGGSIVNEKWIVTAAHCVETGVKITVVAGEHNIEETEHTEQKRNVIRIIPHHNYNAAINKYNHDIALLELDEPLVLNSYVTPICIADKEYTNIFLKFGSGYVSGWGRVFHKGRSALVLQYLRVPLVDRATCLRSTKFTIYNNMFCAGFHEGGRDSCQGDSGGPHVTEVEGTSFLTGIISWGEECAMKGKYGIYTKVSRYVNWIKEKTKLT

As a reminder, the half-life is the time needed for the level to fall by half in the phase considered. As a reminder, the MRT last is the average time that molecules of a dose stay in the body. Turning to `O=C(/C=C/c1cc(Cl)ccc1-n1cnnn1)N[C@@H](CC(=O)N1CCN(c2ccccc2)CC1)C(=O)Nc1ccc(C(=O)O)cc1`, the inhibition result in data set [1] and in data set [8] was “inactive” in each case. For the same compound, the Activity entry in data set [2], in data set [4] and in [7] was “Non-Toxic” each time. The compound further gave a half-life in data set [3] of 75.6 min. The Ratio IC50 in the data set listed under Homo sapiens is > 5000. The Vd in data set [5] was determined as 0.969 L/kg. Also, the MRT last in data set [6] is 19.2 min.
